# Measurements from US20230404988A1, “PROSTAGLANDIN RECEPTOR AGONISTS FOR USE IN THE TREATMENT OF A CORONAVIRUS INFECTION SUCH AS COVID-19” (priority 2020, published 2023).
# Tests used:
# UREC cells = experiment: Microarray transcriptome analysis of UREC cells (Affymetrix Human ClariomD, Reactome/GO analysis); assay type: cell-based
# Method: Cell Culture Immortalized temperature-sensitive URECs are maintained and resuspended in complete RCGM (RCGM medium (0.5% FBS), 1.5% (v/v) certified FBS). Cells were seeded at 116,000 cells/well (350 k cells/cm 2) in 200 μl total volume of complete RCGM medium. Seed in triplicates per each experimental condition. Incubate at 39° C. to stop proliferation for 72 hours. After 72 hrs of cell growth, remove complete RCGM media. Replace with fresh complete RCGM media (2% FBS) containing the drug (at either 0.2, 2, or 10 μM) or vehicle control (media alone or 0.04% DMSO) at the appropriate concentration.
# RNA Extraction. Extract RNA using RNeasy Micro Kit (Qiagene) using supplier's procedure. In short, disrupt the cells by adding QIAzol Lysis Reagent. Scratch each well with the pipette tip and pipette to mix. Homogenize the cells by vortexing. Adjust sample volume. Homogenize by passing the lysate through a 20-gauge needle. Precipitate proteins using chloroform solution. Load into a RNeasy MinElute column. Wash and elute following supplier's procedure. Prepare sample at a concentration of 5 ng/μl for quality control and measure by spectrometry (Xpose, Trinean) and confirming RNA as a RIN using capillary electrophoresis (TapeStation, Agilent). The average yield of extraction is 0.4±0.2 μg/100,000 cells (1 well of a 96-well plate).
# Microarray data analysis. Affymetrix Human ClariomD were used following manufacturers protocols. Affymetrix Human ClariomD data were normalized using quantile normalization with adjustment based on the median intensity of probes with similar GC content (using Affymetrix Power Tools). Background correction was made using the antigenomic probes. Only probes targeting exons annotated from FAST DB v2016_1 transcripts were selected. Probes were considered as expressed if the DABG p-value ≤0.05 (Detection Above Background p-values were calculated using Affymetrix Power Tools) in more or equal than 60% of samples. Genes were considered as expressed if more or equal than 50% of their probes are expressed Minimum 4 selected probes were required to assess gene expression. If possible only high-specific probes were selected (i.e., not overlapping with repeat regions; not cross-hybridizing; and 40≤GC %≤60). In addition, if possible, only probes targeting constitutive gene regions were selected (i.e., targeting at least 75% of transcripts of a given gene). We performed a paired Student's t-test to compare gene intensities in the different biological replicates.
# Analysis at the splicing level was first performed taking into account only exon probes (“EXON” analysis) in order to potentially detect new alternative events that could be differentially regulated (i.e., without taking into account known alternative events). Analysis at the splicing level was also performed by taking into account known patterns (“PATTERN” analysis) using the FAST DB splicing patterns annotation (i.e., for each gene, all possible splicing patterns were defined by comparing exon content of transcripts). All types of alternative events can be analyzed: Alternative first exons, alternative terminal exons, cassette exon, mutually exclusive exons, alternative 5′ donor splice site, alternative 3′-acceptor splice sites, intron retention, internal exon deletion and complex events corresponding to mix of several alternative event categories). “EXON” and “PATTERN” analyses were based on the splicing-index calculation. Results were considered statistically significant for uncorrected p-values ≤0.05 and fold-changes ≥2.0. Finally, significant results from “EXON” and “PATTERN” analyses were merged to obtain a single result list.
# Unsupervised analysis. The PCA has been performed using “prcomp” function in R and the 2 first dimensions were plotted. The clustering has been performed using “dist” and “hclust” functions in R, using Euclidean distance and Ward agglomeration method. […]
# ACE2 [1] = experiment: ACE2 expression in human primary ciliated cells obtained by gentle nasal brushing (RT-PCR/SYBR green PCR, immunoblot); assay type: cell-based; settings: GNC cells, incubation of 3 h to 24 h
# Method: Human primary ciliated cells obtained by gentle nasal brushing cells (GNBC cells) are collected from different patient sources, as described by Veit et al. (Nat. Med., 2018, 24(11), 1732-1742). Ciliogenesis is performed on cells plated on to poly-lysine-coated coverslips in 3.5-cm plates at 0.4×10^6 cells per well, allowed to attach for 24 hr, and then serum starved for 48 hr.
# (§1) Gene downregulation of ACE2 has been evaluated with by RT-PCR and SYBR green PCR analyses. Total RNA was extracted from the cells or tissues and purified with the TRIzol reagent according to the manufacturer's protocol (Invitrogen). RNA was reverse transcribed by SuperScript® III reverse transcriptase (Invitrogen). The genes were amplified by with specific primers designed using BLAST alignment. Three housekeeping gene, GAPDH, (3-actin gene, and rare PBGD (porphobilinogen deaminase) gene were combined for normalization. Relative expression levels have been evaluated with the parameter of (ΔCt) of different human cell lines and human GNB cells after treatment with EP2, EP4 or EP2/EP4 agonists at a dose response concentration varying from 10E-2 to 10E2 fold of their respective EC50 of binding activity on each relevant EP receptor.
# (§2) Immunoblot analysis on A549 cells treated with different EP2 and/or EP4 agonists doses ranging from 10E-2 to 10E2 fold of their respective binding EC50 is performed by lysing cells as described by Jia et al. (J. Virol., 2005, 79(23), 14614-14621).
# ACE2 [2] = experiment: ACE2 expression in A549 cells (RT-PCR/SYBR green PCR, immunoblot); assay type: cell-based, human; settings: incubation of 3 h to 24 h
# Method: Human epithelial NSLC cell lines A549 were purchased from ATCC (catalogue number: ATCC CCL-185, American Type Culture Collection (ATCC), Manassas, VA). A549 cells were maintained in DMEM containing 10% fetal bovine serum (FBS), 4 mM GlutaMax (Thermo Scientific, Waltham, MA), 500 μg/mL Normocin (InvivoGen, San Diego, CA), 100 units/mL penicillin, and […] streptomycin (Thermo Scientific).
# as §1, §2
# SARS-CoV-2 [3] = assay type: cell-based; settings: cells infected with SARS-CoV-2 (Example 4)
# SARS-CoV-2 [4] = assay type: cell-based; settings: human primary cells from airways biopsies infected with SARS-CoV-2 (MOI 0.001), 10 μM, day 2 post-infection, vs non-treated cells (FIG. 1)
# [5] = 71 genes in term, UREC cells, 2 micromolar PGE1 vs non treated control
# [6] = UREC cells, 2 micromolar PGE1 vs non treated control, regulation up
compound,measurement,setting,value
"CCCCC[C@H](O)/C=C/[C@H]1[C@H](O)CC(=O)[C@@H]1CCCCCCC(=O)O [PGE1, Prostaglandin E1]","Nb Regulated Genes (Up/Down), GO:0009597 detection of virus","UREC cells; 5 genes in term, UREC cells, 2 micromolar PGE1 vs non treated control",3 (3/0)
same,"Nb Regulated Genes (Up/Down), GO:0035455 response to interferon-alpha","UREC cells; 10 genes in term, UREC cells, 2 micromolar PGE1 vs non treated control",4 (4/0)
same,"Nb Regulated Genes (Up/Down), R-HSA-918233 TRAF3-dependent IRF activation pathway","UREC cells; 14 genes in pathway, UREC cells, 2 micromolar PGE1 vs non treated control",4 (4/0)
same,"Nb Regulated Genes (Up/Down), R-HSA-168928 RIG-I/MDA5 mediated induction of IFN-alpha/beta pathways","UREC cells; 17 genes in pathway, UREC cells, 2 micromolar PGE1 vs non treated control",6 (6/0)
same,"Nb Regulated Genes (Up/Down), GO:0005164 tumor necrosis factor receptor binding","UREC cells; 29 genes in term, UREC cells, 2 micromolar PGE1 vs non treated control",6 (5/1)
same,"Nb Regulated Genes (Up/Down), R-HSA-933541 TRAF6 mediated IRF7 activation","UREC cells; 33 genes in pathway, UREC cells, 2 micromolar PGE1 vs non treated control",4 (4/0)
same,"Nb Regulated Genes (Up/Down), R-HSA-936440 Negative regulators of RIG-I/MDA5 signaling","UREC cells; 34 genes in pathway, UREC cells, 2 micromolar PGE1 vs non treated control",5 (5/0)
same,"Nb Regulated Genes (Up/Down), GO:0045071 negative regulation of viral genome replication","UREC cells; 40 genes in term, UREC cells, 2 micromolar PGE1 vs non treated control",11 (11/0)
same,"Nb Regulated Genes (Up/Down), GO:0060337 type I interferon signaling pathway","UREC cells; 64 genes in term, UREC cells, 2 micromolar PGE1 vs non treated control",20 (20/0)
same,"Nb Regulated Genes (Up/Down), R-HSA-909733 Interferon alpha/beta signaling","UREC cells; 67 genes in pathway, UREC cells, 2 micromolar PGE1 vs non treated control",20 (20/0)
same,"Nb Regulated Genes (Up/Down), GO:0060333 interferon-gamma-mediated signaling pathway",UREC cells; [5],8 (8/0)
same,"Nb Regulated Genes (Up/Down), GO:0071347 cellular response to interleukin-1",UREC cells; [5],9 (5/4)
same,"Nb Regulated Genes (Up/Down), R-HSA-1169408 ISG15 antiviral mechanism","UREC cells; 73 genes in pathway, UREC cells, 2 micromolar PGE1 vs non treated control",11 (11/0)
same,"Nb Regulated Genes (Up/Down), R-HSA-877300 Interferon gamma signaling","UREC cells; 88 genes in pathway, UREC cells, 2 micromolar PGE1 vs non treated control",11 (11/0)
same,"Nb Regulated Genes (Up/Down), GO:0009615 response to virus","UREC cells; 110 genes in term, UREC cells, 2 micromolar PGE1 vs non treated control",21 (19/2)
same,"Nb Regulated Genes (Up/Down), GO:0051607 defense response to virus","UREC cells; 165 genes in term, UREC cells, 2 micromolar PGE1 vs non treated control",27 (25/2)
same,"Nb Regulated Genes (Up/Down), GO:0006954 inflammatory response","UREC cells; 379 genes in term, UREC cells, 2 micromolar PGE1 vs non treated control",22 (12/10)
same,"Nb Regulated Genes (Up/Down), GO:0006955 immune response","UREC cells; 421 genes in term, UREC cells, 2 micromolar PGE1 vs non treated control",26 (19/7)
same,"Nb Regulated Genes (Up/Down), GO:0045087 innate immune response","UREC cells; 430 genes in term, UREC cells, 2 micromolar PGE1 vs non treated control",30 (27/3)
same,Fold-Change BIRC3,"UREC cells; UREC cells, 2 micromolar PGE1 vs non treated control, regulation down",1.67
same,Fold-Change BST2,UREC cells; [6],1.6
same,Fold-Change DDX58,UREC cells; [6],2.76
same,Fold-Change DHX58,UREC cells; [6],1.55
same,Fold-Change EIF2AK2,UREC cells; [6],1.74
same,Fold-Change EIF4E3,UREC cells; [6],1.72
same,Fold-Change FAST DB STABLE ID GSHG0007017 (no gene symbol),UREC cells; [6],3.58
same,Fold-Change FAST DB STABLE ID GSHG0007018 (no gene symbol),UREC cells; [6],1.93
same,Fold-Change GBP2//GBP7,UREC cells; [6],1.62
same,Fold-Change GBP4,UREC cells; [6],1.86
same,Fold-Change HERC5,UREC cells; [6],2.37
same,Fold-Change HLA-DRA,UREC cells; [6],1.86
same,Fold-Change IFI6,UREC cells; [6],2.51
same,Fold-Change IFI27,UREC cells; [6],1.57
same,Fold-Change IFI35,UREC cells; [6],1.62
same,Fold-Change IFIH1,UREC cells; [6],2.45
same,Fold-Change IFIT1,UREC cells; [6],5.18
same,Fold-Change IFIT2,UREC cells; [6],4.84
same,Fold-Change IFIT3,UREC cells; [6],3.99
same,Fold-Change IFITM1,UREC cells; [6],2.35
same,Fold-Change IRF7,UREC cells; [6],1.88
same,Fold-Change ISG15,UREC cells; [6],1.89
same,Fold-Change MIR3614//TRIM25,UREC cells; [6],1.56
same,Fold-Change MX1,UREC cells; [6],3.68
same,Fold-Change MX2,UREC cells; [6],4.02
same,Fold-Change OASL,UREC cells; [6],2.27
same,Fold-Change RSAD2,UREC cells; [6],3.79
same,Fold-Change SAMHD1,UREC cells; [6],1.89
same,Fold-Change STAT1,UREC cells; [6],1.73
same,Fold-Change TNFSF12//TNFSF12-TNFSF13//TNFSF13,UREC cells; [6],1.62
same,Fold-Change TNFSF13B,UREC cells; [6],1.65
same,Fold-Change TRIM14,UREC cells; [6],2.02
same,Fold-Change USP18,UREC cells; [6],2.26
same,Fold-Change XAF1,UREC cells; [6],1.82
same,expression of a major biological pathway related to viral infection and interferon signaling,UREC cells; UREC human cells,significantly modifies
same,"fold changes of IFN related genes IFIT1, IFIT2 and IFIT3 (overexpressed)",UREC cells; UREC human cells,> 3
same,induction of IFN related gene across doses tested,"UREC cells; UREC human cells, doses from 0.2 to 10 microM",consistent
same,expression of mRNA of ACE2,ACE2 [1],significantly reduce
same,protein level of ACE2,ACE2 [1],significantly reduce
same,expression of mRNA of ACE2,ACE2 [2],significantly reduce
same,protein level of ACE2,ACE2 [2],significantly reduce
"O=C(O)COc1cccc(CN(Cc2ccc(-n3cccn3)cc2)S(=O)(=O)c2cccnc2)c1 [Lab1, taprenepag]",effect on SARS-CoV-2 infection,SARS-CoV-2 [3],significant effect
same,virus replication (viral RNA),SARS-CoV-2 [4],able to decrease virus replication
same,expression of mRNA of ACE2,ACE2 [1],significantly reduce
same,protein level of ACE2,ACE2 [1],significantly reduce
same,expression of mRNA of ACE2,ACE2 [2],significantly reduce
same,protein level of ACE2,ACE2 [2],significantly reduce
"CCCCC[C@H](O)CC[C@H]1[C@H](O)CC(=O)[C@@H]1CCCCCCC(=O)O [Lab4, 13,14-dihydro-PGE1]",effect on SARS-CoV-2 infection,SARS-CoV-2 [3],significant effect
"CC#CCC(C)[C@H](O)/C=C/[C@@H]1[C@H]2C/C(=C/CCCC(=O)O)C[C@H]2C[C@H]1O (stereo partly shown) [Lab2, iloprost]",effect on SARS-CoV-2 infection,SARS-CoV-2 [3],significant effect
"O=C1CC[C@H](/C=C/[C@@H](O)C(F)(F)c2ccccc2)N1CCCCCCc1nn[nH]n1 [Lab5, L902688]",effect on SARS-CoV-2 infection,SARS-CoV-2 [3],significant effect
"CCCCC(C)(C)[C@H](O)/C=C/[C@H]1[C@H](O)CC(=O)[C@@H]1C/C=C\CCCC(=O)O [Lab3, 16-16-dimethyl-PGE2]",effect on SARS-CoV-2 infection,SARS-CoV-2 [3],significant effect
